Assay results taken from ChEMBL document CHEMBL1201862, “PubChem BioAssay data set” (2004).
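Briefly, cells in 96-well plates were exposed to five compound concentrations for 48 h, and endpoints were estimated by linear interpolation. At the GI50, growth is halved.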 Active and inactive are the calls of the source. Cut-off read from the data, not from the text of the source: active = GI50 up to about 1.1 µM and inactive = higher.

How the values were obtained:
Assay in all cases: DTP human tumour cell line panel, 48 h
[1] = system: A549
[2] = system: UACC-257
[3] = system: PC-3
[4] = system: ACHN
[5] = system: UACC-62
[6] = system: HOP-62
[7] = system: SF-268
[8] = system: SNB-75
[9] = system: RPMI-8226
[10] = system: KM12
[11] = system: U-251
[12] = system: HT-29
[13] = system: HL-60
[14] = system: M14
[15] = system: HCC 2998
[16] = system: T47D
[17] = system: HCT-116
[18] = system: 786-0
[19] = system: OVCAR-4
[20] = system: SW-620
[21] = system: DU-145
[22] = system: NCI-H23
[23] = system: OVCAR-5
[24] = system: SK-MEL-5
[25] = system: Hs-578T
[26] = system: HCT-15
[27] = system: BT-549
[28] = system: EKVX
[29] = system: NCI-H522
[30] = system: MCF7
[31] = system: MDA-MB-435
[32] = system: MDA-MB-231
[33] = system: CCRF-CEM
[34] = system: A498
[35] = system: SK-OV-3
[36] = system: UO-31
[37] = system: SF-295
[38] = system: SNB-19
[39] = system: TK-10
[40] = system: HOP-92
[41] = system: NCI-H460
[42] = system: OVCAR-8
[43] = system: SR
[44] = system: COLO 205
[45] = system: SF-539
[46] = system: OVCAR-3
[47] = system: NCI-H226
[48] = system: Malme-3M
[49] = system: SN12C
[50] = system: RXF 393
[51] = system: SK-MEL-28
[52] = system: MOLT-4
[53] = system: MDA-N
[54] = system: IGROV-1
[55] = system: LOX IMVI
[56] = system: K562
[57] = system: NCI/ADR-RES
[58] = system: CAKI-1
[59] = system: SK-MEL-2

C/C1=C/C(C)CC(C)OC(=O)C(C)NC(=O)C(Cc2ccc(O)c(I)c2)N(C)C(=O)C(C)NC(=O)C(C)C1 (stereo unspecified)
GI50 [1]: < 0.01 µM (active)
GI50 [2]: < 0.01 µM (active)
GI50 [3]: < 0.01 µM (active)
GI50 [4]: < 0.01 µM (active)
GI50 [5]: < 0.0256 µM (active)
GI50 [6]: < 0.01 µM (active)
GI50 [7]: < 0.0166 µM (active)
GI50 [8]: < 0.01 µM (active)
GI50 [9]: < 0.01 µM (active)
GI50 [10]: < 0.01 µM (active)
GI50 [11]: < 0.01 µM (active)
GI50 [12]: < 0.01 µM (active)
GI50 [13]: < 0.01 µM (active)
GI50 [14]: < 0.015 µM (active)
GI50 [15]: < 0.01 µM (active)
GI50 [16]: 0.0653 µM (active)
GI50 [17]: < 0.01 µM (active)
GI50 [18]: < 0.01 µM (active)
GI50 [19]: < 0.01 µM (active)
GI50 [20]: < 0.01 µM (active)
GI50 [21]: 0.0302 µM (active)
GI50 [22]: 0.311 µM (active)
GI50 [23]: 7.23 µM (inactive)
GI50 [24]: < 0.0133 µM (active)
GI50 [25]: < 0.01 µM (active)
GI50 [26]: < 0.0164 µM
GI50 [27]: < 0.01 µM (active)
GI50 [28]: 0.0262 µM (active)
GI50 [29]: < 0.01 µM (active)
GI50 [30]: < 0.0371 µM (active)
GI50 [31]: < 0.01 µM (active)
GI50 [32]: < 0.01 µM (active)
GI50 [33]: < 0.01 µM (active)
GI50 [34]: < 0.01 µM (active)
GI50 [35]: < 0.01 µM (active)
GI50 [36]: 0.0127 µM (active)
GI50 [37]: < 0.0316 µM (active)
GI50 [38]: 0.0667 µM (active)
GI50 [39]: < 0.01 µM (active)
GI50 [40]: < 0.0134 µM (active)
GI50 [41]: < 0.01 µM (active)
GI50 [42]: 0.0354 µM (active)
GI50 [43]: < 0.01 µM (active)
GI50 [44]: < 0.01 µM (active)
GI50 [45]: < 0.01 µM (active)
GI50 [46]: < 0.01 µM (active)
GI50 [47]: < 0.0363 µM (active)
GI50 [48]: < 0.0242 µM (active)
GI50 [49]: < 0.0249 µM (active)
GI50 [50]: < 0.01 µM (active)
GI50 [51]: 0.0314 µM (active)
GI50 [52]: < 0.0187 µM (active)
GI50 [53]: < 0.01 µM (active)
GI50 [54]: < 0.01 µM (active)
GI50 [55]: < 0.01 µM (active)
GI50 [56]: < 0.01 µM (active)
GI50 [57]: 0.026 µM (active)
GI50 [58]: < 0.01 µM (active)

Cc1cc2nc(N)n[n+]([O-])c2cc1C
GI50 [1]: > 100 µM (inactive)
GI50 [2]: > 100 µM (inactive)
GI50 [3]: > 100 µM (inactive)
GI50 [4]: > 100 µM (inactive)
GI50 [59]: > 100 µM (inactive)
GI50 [5]: > 100 µM (inactive)
GI50 [6]: > 100 µM (inactive)
GI50 [7]: > 100 µM (inactive)
GI50 [8]: > 10 µM (inactive)
GI50 [9]: > 100 µM (inactive)
GI50 [10]: > 100 µM (inactive)
GI50 [11]: > 100 µM (inactive)
GI50 [12]: > 100 µM (inactive)
GI50 [13]: > 100 µM (inactive)
GI50 [14]: > 100 µM (inactive)
GI50 [15]: > 100 µM (inactive)
GI50 [16]: > 100 µM (inactive)
GI50 [17]: > 100 µM (inactive)
GI50 [18]: > 100 µM (inactive)
GI50 [20]: > 100 µM (inactive)
GI50 [21]: > 100 µM (inactive)
GI50 [22]: > 100 µM (inactive)
GI50 [23]: > 100 µM (inactive)
GI50 [24]: > 100 µM (inactive)
GI50 [25]: > 100 µM (inactive)
GI50 [26]: > 100 µM
GI50 [27]: > 100 µM (inactive)
GI50 [28]: > 100 µM (inactive)
GI50 [29]: > 100 µM (inactive)
GI50 [30]: > 100 µM (inactive)
GI50 [31]: > 100 µM (inactive)
GI50 [32]: > 100 µM (inactive)
GI50 [33]: > 100 µM (inactive)
GI50 [34]: > 100 µM (inactive)
GI50 [35]: > 100 µM (inactive)
GI50 [36]: > 100 µM (inactive)
GI50 [37]: > 100 µM (inactive)
GI50 [38]: > 100 µM (inactive)
GI50 [39]: > 100 µM (inactive)
GI50 [42]: > 100 µM (inactive)
GI50 [43]: > 100 µM (inactive)
GI50 [44]: > 100 µM (inactive)
GI50 [45]: > 100 µM (inactive)
GI50 [47]: > 100 µM (inactive)
GI50 [48]: > 100 µM (inactive)
GI50 [49]: > 100 µM (inactive)
GI50 [50]: > 100 µM (inactive)
GI50 [51]: > 100 µM (inactive)
GI50 [52]: > 100 µM (inactive)
GI50 [53]: > 100 µM (inactive)
GI50 [54]: > 100 µM (inactive)
GI50 [55]: > 100 µM (inactive)
GI50 [56]: > 100 µM (inactive)
GI50 [57]: > 100 µM (inactive)
GI50 [58]: > 100 µM (inactive)

COC(=O)c1cc(C)ccc1/C=C1\Cc2c(C)cc(C)cc2C1=O
GI50 [1]: 99.3 µM (inactive)
GI50 [2]: > 18.3 µM (inactive)
GI50 [3]: > 39.8 µM (inactive)
GI50 [4]: 60.7 µM (inactive)
GI50 [59]: 22.8 µM (inactive)
GI50 [5]: 6.59 µM (inactive)
GI50 [6]: 11.9 µM (inactive)
GI50 [7]: 15.3 µM (inactive)
GI50 [8]: 16.2 µM (inactive)
GI50 [9]: 10.3 µM (inactive)
GI50 [10]: > 44 µM (inactive)
GI50 [11]: 14 µM (inactive)
GI50 [12]: 10.8 µM (inactive)
GI50 [13]: 21.9 µM (inactive)
GI50 [14]: 17.3 µM (inactive)
GI50 [15]: > 100 µM (inactive)
GI50 [16]: > 97.3 µM (inactive)
GI50 [17]: 8.41 µM (inactive)
GI50 [18]: 14 µM (inactive)
GI50 [19]: 24.4 µM (inactive)
GI50 [20]: > 100 µM (inactive)
GI50 [21]: > 100 µM (inactive)
GI50 [22]: 14.5 µM (inactive)
GI50 [23]: > 43.9 µM (inactive)
GI50 [24]: > 100 µM (inactive)
GI50 [25]: 14 µM (inactive)
GI50 [26]: > 100 µM
GI50 [27]: 36.5 µM (inactive)
GI50 [28]: 41.5 µM (inactive)
GI50 [29]: 21.3 µM (inactive)
GI50 [30]: > 100 µM (inactive)
GI50 [31]: 59 µM (inactive)
GI50 [32]: > 36.6 µM (inactive)
GI50 [33]: > 100 µM (inactive)
GI50 [34]: 30.8 µM (inactive)
GI50 [36]: 12.3 µM (inactive)
GI50 [37]: 3.61 µM (inactive)
GI50 [38]: 15.7 µM (inactive)
GI50 [39]: 17.9 µM (inactive)
GI50 [40]: 4.56 µM (inactive)
GI50 [41]: > 85.7 µM (inactive)
GI50 [42]: 47 µM (inactive)
GI50 [43]: 20 µM (inactive)
GI50 [44]: > 100 µM (inactive)
GI50 [45]: 15.6 µM (inactive)
GI50 [46]: 70.6 µM (inactive)
GI50 [47]: 35.4 µM (inactive)
GI50 [48]: > 63.4 µM (inactive)
GI50 [49]: 69 µM (inactive)
GI50 [50]: 16.1 µM (inactive)
GI50 [51]: 99.1 µM (inactive)
GI50 [52]: > 100 µM (inactive)
GI50 [53]: 25.5 µM (inactive)
GI50 [54]: 65.3 µM (inactive)
GI50 [55]: > 30.7 µM (inactive)
GI50 [56]: > 100 µM (inactive)
GI50 [57]: 64.3 µM (inactive)
GI50 [58]: 30.6 µM (inactive)
